From US8198446B2, “Crystalline micropowder particles” (Toray Industries, Inc., priority 2007, dated 2012)

Assays:
[1] = Measurement of particle diameter distribution (laser diffraction, dry measurement, Mastersizer 2000); type: physicochemical; settings: for Particle Diameter Distribution D50 / Particle Diameter Distribution D90: dry measurement, volume basis
Procedure: In the present invention, D50 and D90 are indices for defining particle diameter distribution. Particle diameter distribution is usually called particle size distribution. Particles are divided into groups along with their size with appropriate intervals, and weight (volume) or particle number of the particles belonging to each group is measured to obtain the particle number (frequency) of each group. Taking the particle number (frequency) along the ordinate and taking the particle diameter along the abscissa, a particle diameter distribution is shown as a histogram, frequency curve, cumulative curve or the like. In the present invention, frequency was calculated based on volume. In the particle diameter distribution obtained in such a manner, D50 means the particle diameter at the point where the volume which is cumulatively measured from smaller particles reaches 50%, that is, the point where the cumulative frequency of the volume distribution reaches 50%. D90 means the particle diameter at the point where the volume which is cumulatively measured from smaller particles reaches 90%, that is, the point where the cumulative frequency of the volume distribution reaches 90%. Cumulative frequency (%) of particles which have a smaller diameter than a specified particle diameter can also be calculated from such a distribution chart.
Measurement of the particle diameter distribution of the crystalline finely-ground particles according to the present invention may be carried out with a commercially available apparatus using laser diffraction/scattering based on Mie Theory. For example, the measurement is carried out using a commercially available apparatus such as Malvern (registered trademark) Mastersizer Laser Diffraction Analyzer (Malvern Instruments Ltd). This analyzer irradiates He—Ne laser beam and blue light-emitting diode on particles to obtain a light scattering pattern which occurs on a detector by the irradiation, and then analyzes the light scattering pattern according to Mie Theory to determine the particle diameter distribution. […] An example of the measurement condition is as follows, which was used in Evaluation 1 of the present invention.
• Apparatus: Laser diffraction-based particle size distribution analyzer Mastersizer 2000 (Malvern) • Dry measurement unit: Scircco 2000 • Refractive Index of Samples: Real part; 1.810, Imaginary part; 0 • Time for Sample Measurement: 1 second • Time for Background Measurement: 5 seconds • Pressure: 2.0 bar • Feed Rate: 40% • Analysis Model: Single narrow mode • Calculation Sensitivity Enhanced • Particle Shape Irregular • Analysis Range: 0.020 to 2000 μm • Basis of Size Distribution Measurement: Volume
The particle diameter distribution of the subject compound was measured by dry measurement using a particle size distribution analyzer (Mastersizer 2000, manufactured by Malvern). D50 and D90 were calculated as an index of the particle diameter distribution.

[2] = Check of crystalline state and measurement of degree of crystallinity by powder X-ray diffraction; type: physicochemical; settings: powder X-ray diffraction, Xc=(Sc/(Sc+Sa))×100
Procedure: The degree of crystallinity of the crystalline finely-ground particles according to the present invention is calculated from the integrated intensity ratio of crystalline peaks and amorphous halo which are extracted from an X-ray diffraction pattern obtained by powder X-ray diffraction measurement.
The powder X-ray diffraction measurement may be carried out by using, for example, a powder X-ray diffractometer (2200/RINT Ultima+PC) manufactured by Rigaku as described in Evaluation 2 of the present invention. In preparation of a measurement sample, 100 mg of a sample material is filled in a glass sample plate (0.2 mm depth) in non-destructive condition, and the surface of the sample material is leveled out using a glass plate to obtain a measurement sample. An example of the measurement condition is as follows, which was used in the present invention.
The degree of crystallinity may be calculated by a known analysis method using diffraction patterns of a sample material and sample plate alone (without a sample material) and a difference pattern thereof. For example, using a powder X-ray diffraction pattern analysis software JADE5.0 produced by MDI, which is a commercially available analysis software, a degree of crystallinity may be calculated as follows.
• (1) A difference pattern of the diffraction patterns of a sample material and sample plate alone is smoothed (Savitzky-Goray filter: 19 points). • (2) For a display area of the difference pattern, the x-axis: diffraction angle (2θ) is set between 2 deg and 90 deg, and the y-axis: diffraction intensity (Counts) is set between 0 and 500. • (3) Points are set at diffraction angles of […], 65 and 90 deg, respectively, and a straight line parallel to the x-axis is drawn such that the line is contact with the difference diffraction pattern at a range of 65 deg to 90 deg. The area below the line is determined as a background. • (4) The background is subtracted. • (5) An integrated intensity at a range of 4 deg to 60 deg is calculated (which corresponds to a sum of the integrated intensity of crystalline peaks and an amorphous halo: Sc+Sa) • (6) Points are set at diffraction angles of 2, 7, 18, 26, 30, 35, 59, 65 and 90 deg, respectively. At 2, 65 and 90 deg, the diffraction intensity is set as 0, and at 7, 18, 26, 30, 35 and 59 deg, an approximation by a cubic spline is made such that the approximation formula is in contact with the difference pattern obtained after the subtraction of the background, thereby estimating an amorphous halo. • (7) The amorphous halo is subtracted. • (8) The integrated intensity at a range of 4 deg to 60 deg is calculated (which corresponds to the integrated intensity of the crystalline peaks: Sc). • (9) A degree of crystallinity is calculated according to the following equation. Xc=(Sc/(Sc+Sa))×100 Equation • Xc: Degree of crystallinity (%) • Sc: Integrated intensity of the crystalline peaks • Sa: Integrated intensity of the amorphous halo
For check of the crystalline state and measurement of the degree of crystallinity, powder X-ray diffraction measurement was carried out using a powder X-ray diffraction analyzer (2200/RINT Ultima+PC) manufactured by Rigaku.

[3] = Plasma concentration of drugs when administered to dogs; type: in vivo; settings: oral 10 mg/kg, 3 male beagle dogs
Procedure: The pharmaceutical active substances with a different particle diameter distribution (Example 2 and Comparative Example 2) were orally administered (10 mg/kg) to 3 male beagle dogs, and blood samples were collected at each time points to measure the drug concentration in plasma.

[4] = Storage stability (2): total amount of related substances by HPLC, 60° C./75% RH opened; type: physicochemical
Procedure: For comparison of storage stability, the ground pharmaceutical active substance of Comparative Example 4 (grinding for 3 min), Comparative Example 5 (grinding for 6 min) and Comparative Example 6 (grinding for 7 min), all of which were ground with Table Ball Mill (model V-2M: manufactured by Irie Shokai), were left under the storage condition of 60° C./75% RH opened, and the total amount of related substances was analyzed by HPLC 0.5 and 2 months after the start of the storage (Table 7).

Row | Structure (SMILES) | Cumulative Frequency of Volume Distribution Which Is Occupied by Particles with Volume-Based Particle Diameter 15 (μm) or Less [1] | Particle Diameter Distribution D50 [1] | Particle Diameter Distribution D90 [1] | Degree of Crystallinity [2] | Drug Plasma Concentration AUC 0-24 h, Average (Standard Deviation) [3] | Drug Plasma Concentration C max, Average (Standard Deviation) [3] | Total Amount of Related Substances ([4]; 60° C./75% RH opened, 0.5-Month Later) | Total Amount of Related Substances ([4]; At Start of Storage)
1 | O=C1c2ccccc2C(=O)N1[C@@H]1CC[C@@]2(O)[C@H]3Cc4ccc(O)c5c4[C@@]2(CCN3CC2CC2)[C@H]1O5 [Comparative Example 2, N-(17-Cyclopropylmethyl-4,5α-epoxy-3,14-dihydroxy-morphinan-6β-yl)-phthalimide] | 9.4% | 64.0 μm | 173 μm | 93% | 44.5 (25.4) ng · hr/mL | 4.8 (1.8) ng/mL | – | –
2 | O=C1c2ccccc2C(=O)N1[C@@H]1CC[C@@]2(O)[C@H]3Cc4ccc(O)c5c4[C@@]2(CCN3CC2CC2)[C@H]1O5 [Example 2, N-(17-cyclopropylmethyl-4,5α-epoxy-3,14-dihydroxy-morphinan-6β-yl)-phthalimide] | 96.3% | 6.23 μm | 12.4 μm | 89% | 180.3 (40.9) ng · hr/mL | 18.4 (7.2) ng/mL | – | –
3 | O=C1c2ccccc2C(=O)N1[C@@H]1CC[C@@]2(O)[C@H]3Cc4ccc(O)c5c4[C@@]2(CCN3CC2CC2)[C@H]1O5 [Comparative Example 4, N-(17-cyclopropylmethyl-4,5α-epoxy-3,14-dihydroxy-morphinan-6β-yl)-phthalimide] | – | 17.1 μm | 168 μm | 82% | – | – | 0.38% | 0.23%
